Source: patent US6524560B1, “Use of substituted vinyltetrahydronaphthalenes and vinyl-benzotetrahydropyrans as light protection agents” (BASF Aktiengesellschaft, priority 1999, dated 2003)

How the values were obtained:
[1] = Standardized method for determining photostability (sun test); format: physicochemical; settings: 5% strength by weight alcoholic solution on glass plate, 40° C.; for Photostability 30 min: 30 min irradiation; for Photostability 2 h: 2 h irradiation
Procedure: Standardized Method for Determining Photostability (Sun Test)
A 5% strength by weight alcoholic solution of the light protection agent to be tested is applied, using an Eppendorf pipette (20 μl), to the milled area of a small glass plate. Owing to the presence of the alcohol, the solution distributes uniformly on the roughened surface of the glass. The amount applied corresponds to the amount of light protection agent required to achieve an average sun protection factor in suncreams. In the test, four small glass plates are irradiated in each case. […] The small glass plates are cooled slightly during irradiation using a water cooling system located at the base of the sun test apparatus. The temperature inside the sun test apparatus is 40° C. during irradiation. After the samples have been irradiated, they are washed with ethanol in a dark 50 ml graduated flask and measured using a photometer. The blank samples are likewise applied to small glass plates and evaporated at room temperature for 30 minutes. Like the other samples, they are washed off with ethanol and diluted to 100 ml and measured.

[2] = UV absorption (absorption maximum and specific absorbance E 1/1); format: physicochemical; settings: for λmax: UV absorption maximum; for E^1/1: specific absorbance at λmax
[3] = used alone or in combination with UV-B filters; cited from earlier work

| Photostability 30 min [1] | Photostability 2 h [1] | λmax [2] | E^1/1 [2] | SMILES | photochemical stability [3] |
| --- | --- | --- | --- | --- | --- |
| 100% | 95% | 320 nm | 616 | CCOC(=O)C(=Cc1ccc2c(c1)C(C)(C)CCO2)C(=O)OCC [Example 2] | – |
| 100% | 99% | 294 nm | 411 | CCOC(=O)C(=Cc1ccc2c(c1)C(C)(C)CCC2(C)C)C(=O)OCC [Example 6] | – |
| 99% | 95% | 294 nm | 594 | CCOC(=O)C(=Cc1cc2c(cc1C)C(C)(C)CCC2(C)C)C(=O)OCC [Example 7] | – |
| 100/100% | 100/100% | – | – | CCOC(=O)C(=Cc1cc2c(cc1OC)C(C)(C)CCC2(C)C)C(=O)OCC [Example 8] | – |

The remaining lines, values behind:

| SMILES | Photostability 30 min [1] | Photostability 2 h [1] | λmax [2] | E^1/1 [2] | photochemical stability [3] |
| --- | --- | --- | --- | --- | --- |
| CC(=C(C#N)C#N)c1ccc2c(c1)C(C)(C)CCC2 [Example 1] | 96% | 90% | 346 nm | 694 | – |
| CC(=O)C(=Cc1ccc2c(c1)C(C)(C)CCO2)C(C)=O [Example 3] | 97% | 84% | 330 nm | 801 | – |
| Cc1cc2c(cc1C=C(C#N)C#N)C(C)(C)CCC2(C)C [Example 4] | 95% | 83% | 336 nm | 700 | – |
| CC(C)(C)C(=O)/C(C#N)=C/c1ccc2c(c1)C(C)(C)CCC2(C)C [Example 5] | 86% | 83% | 330 nm | 601 | – |
| COc1ccc(C(=O)CC(=O)c2ccc(C(C)(C)C)cc2)cc1 [PARSOL 1789, 4-(1,1-dimethylethyl)-4′-methoxydibenzoylmethane] | – | – | – | – | does not have sufficient photochemical stability |
